Results taken from patent US11214803B2, “Modulators of YAP1 expression” (Ionis Pharmaceuticals, Inc., priority 2019, dated 2022).
Marks after values point to notes of the source that are not given here. Strand notation (5' to 3'): a small letter for the sugar, then the base; units joined by * are phosphorothioate-linked, units joined directly phosphodiester-linked; [ ] holds rarer units or linkages, { } end groups; capitals alone tell only the bases. k = constrained ethyl (cEt); [5mC] = 5-methylcytosine; d = 2'-deoxy (DNA)

System: Yap1 mRNA
Experiment: Antisense inhibition of human Yap1 in A-431 cells by cEt gapmers, single dose (Example 3, RTS36584)
Format: cell-based
Outline: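 Values are % untreated control: Yap1 mRNA by quantitative RT-PCR (RTS36584), normalized to total RNA by RiboGreen. Before RNA isolation, 5,000 A-431 cells per well were exposed ~48 h to 2,000 nM 16-mer cEt gapmer, delivered without transfection reagent.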

[1] = Table 8, A-431 cells, 5,000 cells per well, free uptake, 2,000 nM, approximately 48 hours, RTS36584, normalized to RIBOGREEN, Yap1 mRNA relative to untreated control cells
[2] = Table 9, A-431 cells, 5,000 cells per well, free uptake, 2,000 nM, approximately 48 hours, RTS36584, normalized to RIBOGREEN, Yap1 mRNA relative to untreated control cells
[3] = Table 26, Yap1 mRNA by 3-10-3 cEt gapmers targeting SEQ ID NO.: 1, and 2, percent of untreated control
[4] = Table 13, A-431 cells, 5,000 cells per well, free uptake, 2,000 nM modified oligonucleotide, approx. 48 hours, RTS36584, normalized to RIBOGREEN, Yap1 mRNA relative to untreated control cells
[5] = Table 35, Yap1 mRNA as percent of untreated control, 3-10-3 cEt gapmers targeting SEQ ID NO: 1 and 2, single dose
[6] = Table 12, A-431 cells, 5,000 cells per well, free uptake, 2,000 nM modified oligonucleotide, approx. 48 hours, RTS36584, normalized to RIBOGREEN, Yap1 mRNA relative to untreated control cells
[7] = Table 27, Yap1 mRNA by 3-10-3 cEt gapmers targeting SEQ ID NO.: 1, and 2, percent of untreated control
[8] = Table 34, Yap1 mRNA as percent of untreated control, 3-10-3 cEt gapmers targeting SEQ ID NO: 1 and 2, single dose
[9] = Table 11, A-431 cells, 5,000 cells per well, free uptake, 2,000 nM oligonucleotide, approx. 48 hours, primer probe set RTS36584, Yap1 mRNA normalized to RIBOGREEN, percent of untreated control
[10] = Table 10, A-431 cells, 5,000 cells per well, free uptake, 2,000 nM oligonucleotide, approx. 48 hours, primer probe set RTS36584, Yap1 mRNA normalized to RIBOGREEN, percent of untreated control

Substance: 958399 (antisense kG*kA*k[5mC]*d[5mC]*dA*dA*d[5mC]*dT*dA*d[5mC]*dT*dT*dG*kA*kA*kG) [Compound 958399]
- YAP1 (% UTC) [1]: 45 % UTC

Substance: 958651 (kA*kA*k[5mC]*dT*dA*dA*dA*dG*dA*dG*dG*dA*d[5mC]*kT*kT*kA; antisense) [Compound 958651]
- YAP1 (% UTC) [2]: 62 % UTC

Substance: 1075308 (antisense kA*kA*kT*dT*dA*dA*dA*d[5mC]*dG*dA*dA*dA*d[5mC]*kA*k[5mC]*kG) [compound 1075308]
- YAP1 (% UTC) [3]: 97 % UTC

Substance: 958445 (antisense kG*kG*k[5mC]*dT*dA*d[5mC]*dG*d[5mC]*d[5mC]*d[5mC]*dG*dG*dA*k[5mC]*kG*k[5mC]) [Compound 958445]
- YAP1 (% UTC) [4]: 63 % UTC

Substance: 958475 (antisense k[5mC]*k[5mC]*kG*dG*dT*dG*d[5mC]*dA*dT*dG*dT*dG*dT*k[5mC]*kT*k[5mC]) [Compound 958475]
- YAP1 (% UTC) [4]: 37 % UTC

Substance: 958620 (antisense kA*kA*kG*d[5mC]*d[5mC]*dT*dT*dG*dG*dG*dT*d[5mC]*dT*kA*kG*k[5mC]) [Compound 958620]
- YAP1 (% UTC) [4]: 57 % UTC

Substance: 1076021 (k[5mC]*kA*kT*dT*dA*dA*dT*dA*dA*dA*dG*dT*dT*kA*k[5mC]*k[5mC]; antisense) [compound 1076021]
- YAP1 (% UTC) [5]: 95 % UTC

Substance: 1074517 (kA*kA*kT*dG*d[5mC]*dA*dT*dA*d[5mC]*dA*dA*dA*dG*k[5mC]*kG*k[5mC]; antisense) [compound 1074517]
- YAP1 (% UTC) [5]: 55 % UTC

Substance: 958469 (antisense kG*kG*k[5mC]*dT*d[5mC]*dT*dA*dT*dA*dA*d[5mC]*d[5mC]*dA*kT*kG*kT) [Compound 958469]
- YAP1 (% UTC) [6]: 17 % UTC

Substance: 1074861 (kT*kG*k[5mC]*dT*d[5mC]*dT*dT*dA*d[5mC]*dA*dT*d[5mC]*dT*kA*kA*kA; antisense) [compound 1074861]
- YAP1 (% UTC) [7]: 23 % UTC

Substance: 1076148 (kT*kA*kT*dT*dA*dA*d[5mC]*dT*d[5mC]*dA*d[5mC]*dG*dA*kA*kG*kA; antisense) [compound 1076148]
- YAP1 (% UTC) [8]: 52 % UTC

Substance: 958593 (kG*kG*kT*d[5mC]*dA*dG*dT*dA*d[5mC]*dA*dG*dA*dG*kG*kG*k[5mC]; antisense) [Compound 958593]
- YAP1 (% UTC) [9]: 7 % UTC

Substance: 1074772 (kA*kG*kT*dT*dA*dA*dA*dA*dT*d[5mC]*dT*dT*dA*kT*k[5mC]*k[5mC]; antisense) [compound 1074772]
- YAP1 (% UTC) [8]: 80 % UTC

Substance: 958801 (antisense k[5mC]*kG*k[5mC]*dT*dA*dG*d[5mC]*dA*d[5mC]*dG*d[5mC]*dG*d[5mC]*kG*k[5mC]*kT) [Compound 958801]
- YAP1 (% UTC) [2]: 131 % UTC

Substance: 958622 (antisense kG*kA*kT*dA*dT*dT*d[5mC]*d[5mC]*dG*d[5mC]*dA*dT*dT*kG*k[5mC]*k[5mC]) [Compound 958622]
- YAP1 (% UTC) [10]: 3 % UTC

Substance: 958765 (antisense kG*kT*kA*d[5mC]*dA*dG*dG*dA*dG*dA*dG*dA*dT*kT*kG*k[5mC]) [Compound 958765]
- YAP1 (% UTC) [4]: 37 % UTC

Substance: 958694 (antisense kA*kT*kT*dG*dG*dT*dG*dG*dT*dG*dT*d[5mC]*dT*k[5mC]*kA*k[5mC]) [Compound 958694]
- YAP1 (% UTC) [6]: 41 % UTC

Substance: 958693 (antisense kG*kT*kG*dG*dT*dG*dT*d[5mC]*dT*d[5mC]*dA*d[5mC]*dA*kG*kG*k[5mC]) [Compound 958693]
- YAP1 (% UTC) [9]: 99 % UTC

Substance: 1076308 (kA*kG*kT*dA*dA*dT*dT*dA*d[5mC]*d[5mC]*dT*d[5mC]*dT*kA*kA*kT; antisense) [compound 1076308]
- YAP1 (% UTC) [8]: 32 % UTC

Substance: 958546 (k[5mC]*kA*kT*dA*d[5mC]*dT*d[5mC]*dT*dA*dG*dT*dT*dA*k[5mC]*kA*kT; antisense) [Compound 958546]
- YAP1 (% UTC) [2]: 6 % UTC

Substance: 1076012 (kA*kA*kT*dA*dT*dA*dA*dA*d[5mC]*dA*dA*dT*dA*kG*k[5mC]*kG; antisense) [compound 1076012]
- YAP1 (% UTC) [3]: 34 % UTC

Substance: 958348 (k[5mC]*kG*kA*dG*dT*d[5mC]*d[5mC]*d[5mC]*d[5mC]*dG*d[5mC]*dG*dG*kA*k[5mC]*kG; antisense) [Compound 958348]
- YAP1 (% UTC) [1]: 122 % UTC

Substance: 958589 (kG*kT*kA*dA*dA*dG*dG*dA*dA*dG*dA*dT*d[5mC]*kT*k[5mC]*k[5mC]; antisense) [Compound 958589]
- YAP1 (% UTC) [6]: 4 % UTC

Substance: 958769 (antisense k[5mC]*kA*kT*dT*dG*d[5mC]*d[5mC]*dA*d[5mC]*dG*dA*dT*d[5mC]*kT*kA*kA) [Compound 958769]
- YAP1 (% UTC) [6]: 36 % UTC

Substance: 1075668 (antisense kA*kA*kT*dT*dA*dT*dT*dG*dG*dT*dG*dA*d[5mC]*kA*k[5mC]*kT) [compound 1075668]
- YAP1 (% UTC) [8]: 80 % UTC

Substance: 958369 (antisense kT*kT*kA*dT*d[5mC]*dT*dA*dG*d[5mC]*dT*dT*dG*dG*kT*kG*kG) [Compound 958369]
- YAP1 (% UTC) [1]: 4 % UTC

Substance: 958464 (antisense kG*k[5mC]*kT*d[5mC]*dA*dT*dG*d[5mC]*dT*dT*dA*dG*dT*k[5mC]*k[5mC]*kA) [Compound 958464]
- YAP1 (% UTC) [6]: 3* % UTC

Substance: 1074157 (kA*kG*k[5mC]*dG*dA*dG*dG*dG*d[5mC]*dT*dA*d[5mC]*dG*k[5mC]*k[5mC]*k[5mC]; antisense) [compound 1074157]
- YAP1 (% UTC) [7]: 103 % UTC

Substance: 958722 (antisense k[5mC]*kA*kT*dA*dA*dT*dA*dG*dG*dA*d[5mC]*dA*d[5mC]*kA*kA*k[5mC]) [Compound 958722]
- YAP1 (% UTC) [10]: 59 % UTC

Substance: 958600 (kG*kT*kA*dG*dA*dT*d[5mC]*dT*dA*dA*dG*dA*dA*kG*k[5mC]*k[5mC]; antisense) [Compound 958600]
- YAP1 (% UTC) [4]: 8 % UTC

Substance: 1074965 (antisense kG*kT*kG*dT*dT*dT*dA*dG*dG*d[5mC]*dA*dA*dG*k[5mC]*kA*kG) [compound 1074965]
- YAP1 (% UTC) [5]: 20 % UTC

Substance: 958408 (antisense k[5mC]*kT*kA*dT*dA*dT*dA*dT*dG*dG*dT*dA*dG*kT*k[5mC]*kT) [Compound 958408]
- YAP1 (% UTC) [1]: 20 % UTC

Substance: 958778 (antisense kG*k[5mC]*kT*dA*d[5mC]*d[5mC]*dT*dG*dG*dA*dG*d[5mC]*dG*kA*kA*kG) [Compound 958778]
- YAP1 (% UTC) [9]: 75 % UTC

Substance: 958820 (kG*kA*k[5mC]*d[5mC]*dA*dG*dT*dA*dA*dG*dA*dA*dG*k[5mC]*k[5mC]*kA; antisense) [Compound 958820]
- YAP1 (% UTC) [4]: 49 % UTC

Substance: 958507 (kG*kA*kG*d[5mC]*dA*dG*dA*dT*dA*dA*dT*d[5mC]*dG*kA*kG*kA; antisense) [Compound 958507]
- YAP1 (% UTC) [10]: 6 % UTC

Substance: 1076244 (k[5mC]*kA*kA*dT*dT*dT*dG*dG*dG*dA*dT*dA*dT*kT*k[5mC]*kG; antisense) [compound 1076244]
- YAP1 (% UTC) [8]: 14 % UTC

Substance: 1075374 (antisense kG*kA*kA*dA*dA*dT*dA*d[5mC]*dT*d[5mC]*d[5mC]*dT*d[5mC]*k[5mC]*kT*kA) [compound 1075374]
- YAP1 (% UTC) (Table 28, Yap1 mRNA as percent of untreated control, 3-10-3 cEt gapmers targeting SEQ ID NO.: 1, and 2): 27 % UTC

Substance: 1075181 (kT*kT*kA*dT*dA*dT*dT*dA*d[5mC]*dT*dA*d[5mC]*dA*kA*k[5mC]*k[5mC]; antisense) [compound 1075181]
- YAP1 (% UTC) [7]: 15 % UTC

Substance: 958617 (antisense kG*kA*kG*dG*dT*dG*dG*dT*d[5mC]*dT*dT*dG*dT*kT*k[5mC]*kT) [Compound 958617]
- YAP1 (% UTC) [10]: 40 % UTC

Substance: 958733 (antisense kT*kA*kA*dT*dA*dG*dA*d[5mC]*dT*dA*dG*dA*d[5mC]*kT*kT*kA) [Compound 958733]
- YAP1 (% UTC) [9]: 67 % UTC
